# Measurements reported in the NIST ThermoML archive (doi:10.1016/j.jct.2018.08.038).
# ± gives the expanded uncertainty stated by the source.
# Details: 101.33 kPa, Liquid, Vibrating tube method
smiles,measurement,setting,value
CCCC[n+]1ccccc1.O=S(=O)([N-]S(=O)(=O)C(F)(F)F)C(F)(F)F [1-butylpyridinium bis[(trifluoromethyl)sulfonyl]imide],mass density,303.15 K,1449.8 ± 2.1 kg/m3
same,mass density,313.15 K,1440.3 ± 2.1 kg/m3
same,mass density,323.15 K,1431.1 ± 2.1 kg/m3
same,mass density,333.15 K,1421.9 ± 2.1 kg/m3
CCCC[n+]1ccccc1.N#C[N-]C#N [1-butylpyridinium dicyanamide],mass density,303.15 K,1074.8 ± 2 kg/m3
same,mass density,313.15 K,1069.7 ± 2 kg/m3
same,mass density,323.15 K,1064.4 ± 2 kg/m3
same,mass density,333.15 K,1059.5 ± 2 kg/m3
